This is an account of results in patent US20240238425A1, “HSD17B13 Inhibitors and/or Degraders” (Pfizer Inc., priority 2022, published 2024).

By DC50 is commonly meant the concentration at which degradation of the target reaches its halfway point.

Where a name gives a salt, the structure may show the parent alone.

The assay relates to HiBiT-HSD17β13 fusion protein (N-terminal HiBiT-tagged HSD17β13 isoform D) in Huh7 HiBiT-HSD17β13 OE cells. Put plainly: Whole-cell Huh7-HSD17B13 HiBiT assay (degrader potency and maximal efficacy, luminescence readout). The class given is cell-based, human. To be noted: 24 hour incubation, geometric mean, * = geometric mean for all forms tested (parent and salt forms); for DC50: read-out: Huh7_HIBIT-HSD17β13_DC50 GMean DC50; for Huh7_HIBIT-HSD17β13_DC50 GMean Asymptote Maximum: max. concentration 1 μM. Here is the method:
Degrader potency and maximal efficacy of test compounds were determined using a whole-cell Huh7-HSD17B13 HiBiT assay, utilizing a luminescence readout. A HiBiT tag was fused to the N-terminus of HSD17β13, and therefore the HiBiT luminescence signal produced in the assay was proportional to the level of HiBiT-HSD17β13 fusion protein in a sample.
A Huh7 HiBiT-HSD17β13 OE cell line was generated using electroporation with an N-terminal HiBiT-tagged HSD17β13 isoform D overexpression plasmid, followed by geneticin selection to produce a stable pool. Clones were created with varying HiBiT signals to optimize HiBiT HSD17 β13 ratios. A clone with similar HSD17β13 expression levels as human primary hepatocytes was selected for the compound screen.
Greiner 384-well white opaque, flat bottom, tissue culture treated plates (Greiner #781080) were used for both HiBiT and CTG assays. The treated plates were spotted with 25 nL of a compound which had been serial diluted 1 in 3.162 in 100% DMSO for an 11-point concentration response curve, with duplicate points at each concentration. The maximum concentration of the compounds was 1 mM, which was later diluted with cell suspension for a maximum concentration of 1 μM). High percentage effect (HPE) wells and zero percentage effect (ZPE) wells located in columns 1 and 24 were spotted with 25 nL of DMSO (Sigma #D2650) using an ECHO Acoustic Liquid Handler (Labcyte Echo 550 Series). Each plate was performed in duplicate.
The Huh7 HiBiT-HSD17β13 OE cells were plated on top of a compound or a DMSO control at 3,000 viable cells/well in 25 μL growth media (DMEM (Gibco #10569), 10% FBS HI (Gibco #16140), 1× Pen/Strep (Gibco #15070), 1×MEM Non-Essential Amino Acids (Gibco #11140), and 300 μg/mL Geneticin (Gibco #10131) in columns 2-24 of the plates. Huh7 parental cells were plated using the same parameters in column 1 (HPE) in the same culture medium, excluding Geneticin selection. Cells were incubated overnight with the compounds for 24 hours (with lid) at 37° C. ([…]).
Each assay was conducted after a 24 hour incubation period. In the HiBiT assay plates, 25 μL of complete Nano-Glo HiBiT Lytic detection system (Promega #PRN3040), consisting of HiBiT Lytic Buffer with the addition of 1:100 LgBiT Protein and 1:50 Substrate, was added to each well. In CTG counter screen plates, 25 μL of Cell Titer-Glo Luminescent Reagent (Promega #G7573) was added to each well. Both plates were centrifuged for 2 minutes at 1000 rpm and incubated at room temperature, in the dark, for 10 minutes. Then Luminescence was read using an EnVision Plate Reader (Perkin Elmer PE2103).
The raw data from the Envision Plate Reader was expressed as relative luminescence units (RLUs) for each well of the assay plates. Using HPE and ZPE controls, the % effect was calculated for each sample well as follows: Percent effect=[(sample RLU−HPE RLU)\(ZPE RLU−HPE RLU)]*100. The percent effect was plotted versus the compound concentration and a 50% degradation ([…]) was determined using a four-parameter logistic dose response equation. The raw data was analyzed using ABase (IDBS).
(In general: With HiBiT, luminescence reflects the tagged protein that the partner subunit can reach.)

With `Cn1c(=O)n(C2CCC(=O)NC2=O)c2ccc(CCCN3CCc4ccc(-c5ccc6cn([C@H]7CC[C@H](CNC(=O)c8cc(F)c(O)c(F)c8F)CC7)nc6c5)cc4C3)cc21` (mixture of isomers) [Example 32, N-{[(1r,4r)-4-{6-[2-(3-{1-[(3RS)-2,6-dioxopiperidin-3-yl]-3-methyl-2-oxo-2,3-dihydro-1H-benzimidazol-5-yl}propyl)-1,2,3,4-tetrahydroisoquinolin-7-yl]-2H-indazol-2-yl}cyclohexyl]methyl}-2,3,5-trifluoro-4-hydroxybenzamide, trifluoroacetate salt], the DC50 stood at 0.3 nM and the “Huh7_HIBIT-HSD17β13_DC50 GMean Asymptote Maximum” value is reported as 83%.

As to `Cn1c(=O)n(C2CCC(=O)NC2=O)c2ccc(CCCN3CC(n4cc(-c5ccc6cn([C@H]7CC[C@H](CNC(=O)c8cc(F)c(O)c(F)c8F)CC7)nc6c5)cn4)C3)cc21` (mixture of isomers) [Example 33, N-{[(1r,4r)-4-(6-{1-[1-(3-{1-[(3RS)-2,6-dioxopiperidin-3-yl]-3-methyl-2-oxo-2,3-dihydro-1H-benzimidazol-5-yl}propyl)azetidin-3-yl]-1H-pyrazol-4-yl}-2H-indazol-2-yl)cyclohexyl]methyl}-2,3,5-trifluoro-4-hydroxybenzamide], the 50% degradation concentration (DC50) stood at 0.62 nM and the “Huh7_HIBIT-HSD17β13_DC50 GMean Asymptote Maximum” value is recorded as 86%.

For the molecule `Cn1c(=O)n(C2CCC(=O)NC2=O)c2ccc(CCCN3CCc4cc(-c5ccc6cn([C@H]7CC[C@H](CNC(=O)c8cc(F)c(O)c(F)c8F)CC7)nc6c5)ccc4C3)cc21` (mixture of isomers) [Example 34, N-{[(1r,4r)-4-{6-[2-(3-{1-[(3RS)-2,6-dioxopiperidin-3-yl]-3-methyl-2-oxo-2,3-dihydro-1H-benzimidazol-5-yl}propyl)-1,2,3,4-tetrahydroisoquinolin-6-yl]-2H-indazol-2-yl}cyclohexyl]methyl}-2,3,5-trifluoro-4-hydroxybenzamide, trifluoroacetate salt], the half-maximal degradation concentration (DC50) turned out to be 0.23 nM and the “Huh7_HIBIT-HSD17β13_DC50 GMean Asymptote Maximum” value was 81%.

Take `O=C1CCC(N2Cc3c(OCc4ccc(CN5CCC(CCCOc6ccc(-c7noc([C@]89CC[C@](CNC(=O)c%10cc(F)c(O)c(F)c%10F)(CC8)CC9)n7)nn6)CC5)cc4)cccc3C2=O)C(=O)N1` (mixture of isomers) [Example 36, N-({4-[3-(6-{3-[1-({4-[{{2-[(3RS)-2,6-dioxopiperidin-3-yl]-1-oxo-2,3-dihydro-1H-isoindol-4-yl}oxy)methyl]phenyl}methyl)piperi-din-4-yl]propoxy}pyridazin-3-yl)-1,2,4-oxadiazol-5-yl]bicyclo[2.2.2]octan-1-yl}methyl)-2,3,5-trifluoro-4-hydroxybenzamide, trifluoroacetate salt]: the DC50 is 2.2 nM and the “Huh7_HIBIT-HSD17β13_DC50 GMean Asymptote Maximum” value was 86%.

As to `O=C1CCC(N2Cc3c(OCc4ccc(CN5CCC(CCCOc6ccc(-c7noc([C@]89CC[C@](CNC(=O)c%10cc(F)c(O)c(F)c%10)(CC8)CC9)n7)nn6)CC5)cc4)cccc3C2=O)C(=O)N1` (mixture of isomers) [Example 37, N-({4-[3-(6-{3-[1-({4-[({2-[(3RS)-2,6-dioxopiperidin-3-yl]-1-oxo-2,3-dihydro-1H-isoindol-4-yl}oxy)methyl]phenyl}methyl)piperi-din-4-yl]propoxy}pyridazin-3-yl)-1,2,4-oxadiazol-5-yl]bicyclo[2.2.2]octan-1-yl}methyl)-3,5-difluoro-4-hydroxybenzamide, trifluoroacetate salt], the DC50 was determined as 2 nM and the “Huh7_HIBIT-HSD17β13_DC50 GMean Asymptote Maximum” value stood at 85%.

As for `Cn1c(=O)n(C2CCC(=O)NC2=O)c2ccc(CCCCNc3ncc(-c4ccc5cn([C@H]6CC[C@H](CNC(=O)c7cc(F)c(O)c(F)c7F)CC6)nc5c4)cn3)cc21` (mixture of isomers) [Example 38, N-{[(1r,4r)-4-(6-{2-[(4-{1-[(3RS)-2,6-dioxopiperidin-3-yl]-3-methyl-2-oxo-2,3-dihydro-1H-benzimidazol-5-yl}butyl)amino]pyrimidin-5-yl}-2H-indazol-2-yl)cyclohexyl]methyl}-2,3,5-trifluoro-4-hydroxybenzamide], the DC50 came to 2.6 nM and the “Huh7_HIBIT-HSD17β13_DC50 GMean Asymptote Maximum” value is listed as 79%.

Regarding `Cn1c(=O)n(C2CCC(=O)NC2=O)c2ccc(CCCCCC(=O)N3CCN(c4ccc5cn([C@H]6CC[C@H](CNC(=O)c7cc(F)c(O)c(F)c7F)CC6)nc5c4)CC3)cc21` (mixture of isomers) [Example 39, N-{[(1r,4r)-4-{6-[4-(6-{1-[(3RS)-2,6-dioxopiperidin-3-yl]-3-methyl-2-oxo-2,3-dihydro-1H-benzimidazol-5-yl}hexanoyl)piperazin-1-yl]-2H-indazol-2-yl}cyclohexyl]methyl}-2,3,5-trifluoro-4-hydroxybenzamide, trifluoroacetate salt], the DC50 stood at 1.1 nM and the “Huh7_HIBIT-HSD17β13_DC50 GMean Asymptote Maximum” value worked out at 86%.

As for `Cn1c(=O)n(C2CCC(=O)NC2=O)c2ccc(CCC3CN(c4ncc(-c5ccc6cn([C@H]7CC[C@H](CNC(=O)c8cc(F)c(O)c(F)c8F)CC7)nc6c5)cn4)C3)cc21` (mixture of isomers) [Example 41, N-{[(1r,4r)-4-(6-{2-[3-(2-{1-[(3RS)-2,6-dioxopiperidin-3-yl]-3-methyl-2-oxo-2,3-dihydro-1H-benzimidazol-5-yl}ethyl)azetidin-1-yl]pyrimidin-5-yl}-2H-indazol-2-yl)cyclohexyl]methyl}-2,3,5-trifluoro-4-hydroxybenzamide], the DC50 was 0.86 nM and the “Huh7_HIBIT-HSD17β13_DC50 GMean Asymptote Maximum” value turned out to be 81%.

Take `Cn1c(=O)n(C2CCC(=O)NC2=O)c2ccc(CCN3CCN(c4ncc(-c5ccc6cn([C@H]7CC[C@H](CNC(=O)c8cc(F)c(O)c(F)c8F)CC7)nc6c5)cn4)CC3)cc21` (mixture of isomers) [Example 43, N-{[(1r,4r)-4-(6-{2-[4-(2-{1-[(3RS)-2,6-dioxopiperidin-3-yl]-3-methyl-2-oxo-2,3-dihydro-1H-benzimidazol-5-yl}ethyl)piperazin-1-yl]pyrimidin-5-yl}-2H-indazol-2-yl)cyclohexyl]methyl}-2,3,5-trifluoro-4-hydroxybenzamide, trifluoroacetate salt]: the DC50 was 0.29 nM and the “Huh7_HIBIT-HSD17β13_DC50 GMean Asymptote Maximum” value was 83%.

`Cn1c(=O)n(C2CCC(=O)NC2=O)c2ccc(CCN3CCC(F)(Cc4ccc5cn([C@H]6CC[C@H](CNC(=O)c7cc(F)c(O)c(F)c7F)CC6)nc5c4)CC3)cc21` (mixture of isomers) [Example 44, N-{[(1r,4r)-4-(6-{[1-(2-{1-[(3RS)-2,6-dioxopiperidin-3-yl]-3-methyl-2-oxo-2,3-dihydro-1H-benzimidazol-5-yl}ethyl)-4-fluoropiperidin-4-yl]methyl}-2H-indazol-2-yl)cyclohexyl]methyl}-2,3,5-trifluoro-4-hydroxybenzamide, trifluoroacetate salt]: the DC50 amounted to 1.5 nM and the “Huh7_HIBIT-HSD17β13_DC50 GMean Asymptote Maximum” value turned out to be 84%.

Consider `Cn1c(=O)n(C2CCC(=O)NC2=O)c2ccc(CC3CCN(c4ncc(-c5ccc6cn([C@H]7CC[C@H](CNC(=O)c8cc(F)c(O)c(F)c8F)CC7)nc6c5)cn4)CC3)cc21` (mixture of isomers) [Example 46, N-{[(1r,4r)-4-(6-{2-[4-({1-[(3RS)-2,6-dioxopiperidin-3-yl]-3-methyl-2-oxo-2,3-dihydro-1H-benzimidazol-5-yl}methyl)piperidin-1-yl]pyrimidin-5-yl}-2H-indazol-2-yl)cyclohexyl]methyl}-2,3,5-trifluoro-4-hydroxybenzamide, trifluoroacetate salt], for which the DC50 turned out to be 0.57 nM and the “Huh7_HIBIT-HSD17β13_DC50 GMean Asymptote Maximum” value was determined as 84%.
